Experiments:
COX II = molecular target: T1, COX II (Homo sapiens, UniProt P35354); assay: Inhibition of COX II in vitro (radiometric assay, 14C arachidonic acid, partially purified enzyme); format: biochemical; conditions: partially purified COX II, 20 micromolar arachidonic acid, 10 min preincubation, room temperature; read-out: COX II IC50
T1 construct: made in house; baculovirus-infected insect cells by own knowledge of the cited Barnett et al. 1994
T1 sequence (P35354 18-604): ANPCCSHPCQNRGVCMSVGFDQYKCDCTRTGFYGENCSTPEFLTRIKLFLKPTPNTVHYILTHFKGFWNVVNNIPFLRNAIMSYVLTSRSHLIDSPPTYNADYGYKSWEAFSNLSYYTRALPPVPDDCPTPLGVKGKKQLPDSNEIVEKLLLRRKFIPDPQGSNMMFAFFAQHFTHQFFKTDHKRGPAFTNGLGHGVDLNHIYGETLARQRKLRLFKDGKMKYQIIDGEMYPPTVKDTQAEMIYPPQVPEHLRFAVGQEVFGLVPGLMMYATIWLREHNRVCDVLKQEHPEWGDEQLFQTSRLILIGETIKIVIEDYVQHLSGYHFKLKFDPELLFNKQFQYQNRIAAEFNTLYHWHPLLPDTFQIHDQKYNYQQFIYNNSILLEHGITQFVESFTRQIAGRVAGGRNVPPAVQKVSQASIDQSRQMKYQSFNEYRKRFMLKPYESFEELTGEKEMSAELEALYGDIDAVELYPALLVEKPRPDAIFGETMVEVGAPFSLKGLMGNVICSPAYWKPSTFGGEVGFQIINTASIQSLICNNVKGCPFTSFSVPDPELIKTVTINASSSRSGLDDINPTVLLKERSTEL
Protocol: (§1) The COX I and COX II inhibitory activity of compounds of this invention in vitro was determined using partially purified COX I and COX II enzymes, prepared as described in J. Barnett et al., Biochim. Biophys. Acta, 1209:130--139 (1994).
(§2) COX I and COX II samples were diluted with Tris-HCl buffer (50 mM Tris-HCl pH 7.9) containing 2 mM EDTA and 10% glycerol and reconstituted by incubating first with 2 mM phenol for 5 minutes and then with 1 micromolar hematin for an additional 5 minutes. 125 μl of the reconstituted COX I or COX II enzyme were preincubated for 10 minutes at room temperature in a shaking water bath with the compounds of the invention dissolved in 2-15 μl of DMSO or the carrier vehicles (control samples). The enzyme reaction was initiated by adding 25 μl of 1-[14C] arachidonic acid (80,000-100,000 cpm/tube; 20 micromolar final concentration) and the reaction was allowed to continue for an additional 45 seconds. The reaction was terminated by adding 100 μl of 2N HCl and 750 μl water. An aliquot (950 μl) of the reaction mixture was loaded onto a 1 ml C18 Sep-Pak column (J. T. Baker, Phillipsburg, N.J.) which had been previously washed with 2-3 ml methanol and equilibrated with 5-6 ml distilled water. Oxygenated products were quantitatively eluted with 3 ml of acetonitrile/water/acetic acid (50:50:0.1, v/v) and the radioactivity in the eluate determined in a scintillation counter.

COX I = molecular target: T2, COX I (Homo sapiens, UniProt P23219); assay: Inhibition of COX I in vitro (radiometric assay, 14C arachidonic acid, partially purified enzyme); format: biochemical; conditions: partially purified COX I, 20 micromolar arachidonic acid, 10 min preincubation, room temperature; read-out: COX I IC50
T2 construct: made in house; baculovirus-infected insect cells by own knowledge of the cited Barnett et al. 1994
Protocol: as §1, §2

T2 sequence (P23219 24-599): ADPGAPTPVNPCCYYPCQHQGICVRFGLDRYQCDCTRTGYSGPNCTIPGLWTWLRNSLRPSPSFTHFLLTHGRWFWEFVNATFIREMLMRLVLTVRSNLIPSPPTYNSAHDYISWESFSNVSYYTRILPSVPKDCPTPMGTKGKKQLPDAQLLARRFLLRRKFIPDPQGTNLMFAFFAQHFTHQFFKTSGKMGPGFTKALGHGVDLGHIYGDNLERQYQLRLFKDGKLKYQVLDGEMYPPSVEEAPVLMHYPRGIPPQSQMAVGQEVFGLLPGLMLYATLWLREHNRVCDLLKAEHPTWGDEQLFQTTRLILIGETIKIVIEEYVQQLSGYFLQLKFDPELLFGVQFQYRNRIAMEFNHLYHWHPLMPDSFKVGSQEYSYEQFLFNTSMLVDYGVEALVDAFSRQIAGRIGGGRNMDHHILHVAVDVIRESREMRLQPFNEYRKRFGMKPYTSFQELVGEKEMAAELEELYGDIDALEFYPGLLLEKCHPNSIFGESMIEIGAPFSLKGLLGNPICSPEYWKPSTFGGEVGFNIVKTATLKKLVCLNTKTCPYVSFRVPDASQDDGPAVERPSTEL

Row | SMILES | IC50 (COX II) [nM] | IC50 (COX I) [nM]
1 | Cc1cc(Cc2ccc(NS(C)(=O)=O)cc2)n(C)c1C(=O)c1ccc(Cl)cc1 [compound 1, N-{4-[5-(4-Chlorobenzoyl)-1,4-dimethyl-1H-pyrrol-2-ylmethyl]phenyl}methane-sulfonamide] | 150 | 11000
2 | Cc1cc(C(C)c2ccc(NS(C)(=O)=O)cc2)n(C)c1C(=O)c1ccc(Cl)cc1 (stereo not shown) [compound 11, N-{4-[5-(4-Chlorobenzoyl)-1,4-dimethyl-1H-pyrrol-2-ylethan-1-yl]phenyl}-methanesulfonamide] | 510 | 7500
3 | Cc1cc(Cc2c(F)cc(NS(C)(=O)=O)cc2F)n(C)c1C(=O)c1ccc(Cl)cc1 [compound 27, N-{3,5-Difluoro-4-[5-(4-chlorobenzoyl)-1,4-dimethyl-1H-pyrrol-2-ylmethyl]-phenyl}-methanesulfonamide] | 63 | 415000
4 | Cc1ccc(C(=O)c2ccc(Cc3ccc(NS(C)(=O)=O)cc3)n2C)cc1 [compound 28, N-{4-[5-(4-Methylbenzoyl)-1-methyl-1H-pyrrol-2-ylmethyl]phenyl}methanesulfonamide] | 190 | 33000
5 | Cc1ccc(C(=O)c2ccc(Cc3ccc(NS(C)(=O)=O)cc3Cl)n2C)cc1 [compound 31, N-{3-Chloro-4-[5-(4-methylbenzoyl)-1-methyl-1H-pyrrol-2-ylmethyl]phenyl}-methanesulfonamide] | 45 | 3900
6 | Cc1ccc(C(=O)c2c(C)cc(Cc3ccc(NS(C)(=O)=O)cc3F)n2C)cc1 [compound 38, N-{3-Fluoro-4-[5-(4-methylbenzoyl)-1,4-dimethyl-1H-pyrrol-2-ylmethyl]phenyl}-methanesulfonamide] | 65 | 270
7 | Cc1cc(Cc2ccc(NS(C)(=O)=O)cc2F)n(C)c1C(=O)c1ccccc1 [compound 60, N-{3-Fluoro-4-[5-benzoyl-1,4-dimethyl-1H-pyrrol-2-ylmethyl]phenyl}methanesulfonamide] | 28 | 160
8 | Cc1cc(Cc2ccc(NS(=O)(=O)CCO)cc2F)n(C)c1C(=O)c1ccccc1 [compound 63, N-{3-Fluoro-4-[5-benzoyl-1,4-dimethyl-1H-pyrrol-2-ylmethyl]phenyl}-2-(hydroxy)-ethanesulfonamide] | 330 | 35
9 | Cn1c(Cc2ccc(NS(=O)(=O)CCO)cc2F)ccc1C(=O)c1ccccc1 [compound 66, N-{3-Fluoro-4-[5-benzoyl-1-methyl-1H-pyrrol-2-ylmethyl]phenyl}-2-(hydroxy)-ethanesulfonamide] | 120 | 6900
10 | CCS(=O)(=O)Nc1ccc(Cc2cc(C)c(C(=O)c3ccccc3)n2C)c(F)c1 [compound 68, N-{3-Fluoro-4-[5-benzoyl-1,4-dimethyl-1H-pyrrol-2-ylmethyl]phenyl}ethanesulfonamide] | 73 | 860
11 | Cc1ccccc1C(=O)c1ccc(Cc2ccc(NS(C)(=O)=O)cc2F)n1C [compound 71, N-{3-Fluoro-4-[5-(2-methylbenzoyl)-1-methyl-1H-pyrrol-2-ylmethyl]phenyl}-methanesulfonamide] | 160 | 38000
12 | COc1ccccc1C(=O)c1ccc(Cc2ccc(NS(C)(=O)=O)cc2F)n1C [compound 72, N-{3-Fluoro-4-[5-(2-methoxybenzoyl)-1-methyl-1H-pyrrol-2-ylmethyl]phenyl}-methanesulfonamide] | 700 | 265000
13 | CN(C)c1ccc(C(=O)c2ccc(Cc3ccc(NS(C)(=O)=O)cc3F)n2C)cc1 [compound 88, N-{3-Fluoro-4-[5-(4-dimethylaminobenzoyl)-1-methyl-1H-pyrrol-2-ylmethyl]phenyl}-methanesulfonamide] | 60 | < 100
14 | COc1ccc(C(=O)c2c(C)cc(Cc3ccc(NS(C)(=O)=O)cc3F)n2C)cc1 [compound 95, N-{3-Fluoro-4-[5-(4-methoxybenzoyl)-1,4-dimethyl-1H-pyrrol-2-ylmethyl]phenyl}-methanesulfonamide] | 60 | 90
15 | CCS(=O)(=O)Nc1ccc(Cc2cc(C)c(C(=O)c3ccc(OC)cc3)n2C)c(F)c1 [compound 97, N-{3-Fluoro-4-[5-(4-methoxybenzoyl)-1,4-dimethyl-1H-pyrrol-2-ylmethyl]phenyl}-ethanesulfonamide] | 38 | < 100
16 | Cc1cc(Cc2ccc(NS(=O)(=O)CCO)cc2F)n(C)c1C(=O)c1ccc(F)cc1 [compound 104, N-{3-Fluoro-4-[5-(4-fluorobenzoyl)-1,4-dimethyl-1H-pyrrol-2-ylmethyl]phenyl}-2-(hydroxy)ethanesulfonamide] | 240 | 750
17 | COc1ccc(C(=O)c2ccc(Cc3ccc(NS(=O)(=O)CCO)cc3F)n2C)cc1 [compound 106, N-{3-Fluoro-4-[5-(4-methoxybenzoyl)-1-methyl-1H-pyrrol-2-ylmethyl]phenyl}-2-(hydroxy)ethanesulfonamide] | 70 | 950
18 | CS(=O)(=O)Nc1ccc(C2CCn3c(C(=O)c4ccccc4)ccc32)c(Cl)c1 (stereo not shown) [compound 131, N-{3-Chloro-4-[5-Benzoyl-1,2-dihydro-3H-pyrrolizin-1-yl]phenyl}methanesulfonamide] | 77 | 200
19 | COc1ccc(C(=O)c2ccc3n2CCC3c2ccc(NS(=O)(=O)CCO)cc2Cl)cc1 (stereo not shown) [compound 133, N-{3-Chloro-4-[5-(4-methoxybenzoyl)-1,2-dihydro-3H-pyrrolizin-1-yl]phenyl}-2(hydroxy)ethanesulfonamide] | 58 | 45
20 | Cc1cc(Cc2ccc(NS(N)(=O)=O)cc2)n(C)c1C(=O)c1ccc(Cl)cc1 [compound 141, 1-{4-[5-(4-Chlorobenzoyl)-1,4-dimethyl-1H-pyrrol-2-ylmethyl]phenyl}sulfamide] | 30 | 3900
21 | Cc1cc(Cc2ccc(NS(N)(=O)=O)cc2C#N)n(C)c1C(=O)c1ccc(Cl)cc1 [compound 147, 1-{3-Cyano-4-[5-(4-chlorobenzoyl)-1,4-dimethyl-1H-pyrrol-2-ylmethyl]phenyl}sulfamide] | 100 | 600
22 | Cc1ccc(C(=O)c2ccc(Cc3ccc(NS(N)(=O)=O)cc3F)n2C)cc1 [compound 154, 1-{3-Fluoro-4-[5-(4-methylbenzoyl)-1-methyl-1H-pyrrol-2-ylmethyl]phenyl}sulfamide] | 54 | 34000
23 | CNS(=O)(=O)Nc1ccc(Cc2ccc(C(=O)c3ccc(C)cc3C)n2C)c(F)c1 [compound 172, 1-{3-Fluoro-4-[5-(2,4-dimethylbenzoyl)-1-methyl-1H-pyrrol-2-ylmethyl]phenyl}-3-methylsulfamide] | 90 | 43000
24 | Cc1cc(Cc2ccc(NS(N)(=O)=O)cc2)n(C)c1C(=O)c1ccccc1 [compound 177, 1-{4-[5-benzoyl-1,4-dimethyl-1H-pyrrol-2-ylmethyl]phenyl}sulfamide] | 300 | 790
25 | COc1ccc(C(=O)c2ccc(Cc3ccc(NS(N)(=O)=O)cc3F)n2C)cc1 [compound 196, 1-{3-Fluoro-4-[5-(4-Methoxybenzoyl)-1-methyl-1H-pyrrol-2-ylmethyl]phenyl}sulfamide] | 40 | 5000
26 | COc1ccc(C(=O)c2c(C)cc(Cc3ccc(NS(N)(=O)=O)cc3F)n2C)cc1 [compound 197, 1-{3-Fluoro-4-[5-(4-Methoxybenzoyl)-1,4-dimethyl-1H-pyrrol-2-ylmethyl]phenyl}-sulfamide] | 70 | < 100
27 | COc1ccc(C(=O)c2ccc(Cc3ccc(NS(N)(=O)=O)cc3C#N)n2C)cc1 [compound 202, 1-{3-Cyano-4-[5-(4-methoxybenzoyl)-1-methyl-1H-pyrrol-2-ylmethyl]phenyl}-sulfamide] | 50 | 3200
28 | Cc1cc(Cc2ccc(N)cn2)n(C)c1C(=O)c1ccc(Cl)cc1 [compound 333, {2-[5-(4-Chlorobenzoyl)-1,4-dimethyl-1H-pyrrol-2-ylmethyl]pyridin-5-yl}amine] | 78400 | 

Source: patent US5952368A, “5-aroylpyrrol-2-ylmethylarene derivatives” (Syntex (U.S.A.) Inc., priority 1997, dated 1999)
